# Tests used:
# [1] = tested on: CAL-148; experiment: normalised viability (% of control), CellTiter-Blue; higher = more viable cells (about 100 = DMSO control); conditions: incubation time: 72 h
# Experimental: (§1)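 DSRT, CellTiter-Blue viability, 72 h incubation. Signal is normalised to DMSO and benzethonium chloride controls. Value is the normalised response at dose 9.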
# [2] = tested on: HDQ-P1; experiment: as above; conditions: incubation time: 72 h
# Experimental: as §1
# [3] = tested on: MDA-MB-453; experiment: as above; conditions: incubation time: 72 h
# Experimental: as §1
# [4] = tested on: CAL-51; experiment: as above; conditions: incubation time: 72 h
# Experimental: as §1
# [5] = tested on: CAL-85-1; experiment: as above; conditions: incubation time: 72 h
# Experimental: as §1
# [6] = tested on: DU-4475; experiment: as above; conditions: incubation time: 72 h
# Experimental: as §1
# [7] = tested on: CAL-148; experiment: as above; conditions: incubation time: 72 h; remark: listed apart in the source
# Experimental: (§2)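 DSRT, CellTiter-Blue viability, 72 h incubation. Signal is normalised to DMSO and benzethonium chloride controls. Value is the normalised response at dose 6.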
# [8] = tested on: HDQ-P1; experiment: as above; conditions: incubation time: 72 h; remark: listed apart in the source
# Experimental: as §2
# [9] = tested on: MDA-MB-453; experiment: as above; conditions: incubation time: 72 h; remark: listed apart in the source
# Experimental: as §2
# [10] = tested on: CAL-51; experiment: as above; conditions: incubation time: 72 h; remark: listed apart in the source
# Experimental: as §2
# [11] = tested on: CAL-85-1; experiment: as above; conditions: incubation time: 72 h; remark: listed apart in the source
# Experimental: as §2
# [12] = tested on: DU-4475; experiment: as above; conditions: incubation time: 72 h; remark: listed apart in the source
# Experimental: as §2
# [13] = tested on: MDA-MB-436; experiment: as above; conditions: incubation time: 72 h
# Experimental: (§3)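 DSRT, CellTiter-Blue viability, 72 h incubation. Signal is normalised to DMSO and benzethonium chloride controls. Value is the normalised response at dose 3.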
# [14] = tested on: BT-549; experiment: as above; conditions: incubation time: 72 h
# Experimental: as §3
# [15] = tested on: HCC1599; experiment: as above; conditions: incubation time: 72 h
# Experimental: as §3
# [16] = tested on: HCC1143; experiment: as above; conditions: incubation time: 72 h
# Experimental: as §3
# [17] = tested on: CAL-148; experiment: as above; conditions: incubation time: 72 h; remark: listed apart in the source
# Experimental: as §3
# [18] = tested on: SK-BR-3; experiment: as above; conditions: incubation time: 72 h
# Experimental: as §3
# [19] = tested on: HDQ-P1; experiment: as above; conditions: incubation time: 72 h; remark: listed apart in the source
# Experimental: as §3
# [20] = tested on: MDA-MB-453; experiment: as above; conditions: incubation time: 72 h; remark: listed apart in the source
# Experimental: as §3
# [21] = tested on: BT-474; experiment: as above; conditions: incubation time: 72 h
# Experimental: as §3
# [22] = tested on: MDA-MB-436; conditions: 72 h
# How it was run: (§4)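 Breast cancer cell lines (20 µl suspension) were seeded into 384-well plates holding compound at 5 concentrations in 10-fold steps over a compound-specific 10,000-fold range, then incubated 72 h. Cell death was read first by CellTox Green fluorescence (485/520 nm), then viability by CellTiter-Glo luminescence after 10 min at room temperature. Each plate was normalised to 0.1 % DMSO and a positive kill control. EC50 was fitted from the dose-response curves and censored at the top concentration.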
# [23] = tested on: Hs578T; conditions: 72 h
# How it was run: as §4
# [24] = tested on: MCF-10A; conditions: 72 h
# How it was run: as §4
# [25] = tested on: HCC1937; conditions: 72 h
# How it was run: as §4
# [26] = tested on: BT-549; conditions: 72 h
# How it was run: as §4
# [27] = tested on: CAL-120; conditions: 72 h
# How it was run: as §4
# [28] = tested on: MDA-MB-231; conditions: 72 h
# How it was run: as §4
# [29] = tested on: MDA-MB-468; conditions: 72 h
# How it was run: as §4
# [30] = tested on: SK-BR-3; conditions: 72 h
# How it was run: as §4
# [31] = tested on: MDA-MB-453; conditions: 72 h
# How it was run: as §4
# [32] = tested on: BT-474; conditions: 72 h
# How it was run: as §4
# [33] = tested on: CAL-51; conditions: 72 h
# How it was run: as §4
# [34] = tested on: CAL-85-1; conditions: 72 h
# How it was run: as §4
# [35] = tested on: MDA-MB-453; conditions: 72 h; remark: listed apart in the source
# How it was run: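 Each 384-well plate was pre-loaded with compound dissolved in 5 µl medium, received breast cancer cells in 20 µl suspension, and was incubated 72 h. A 2.5 µl addition of CellTiter-Blue for 2 h at 37 °C was followed by a fluorescence read at 560/590 nm. Data were normalised per plate to vehicle and a positive kill control and checked by Z'-factor. EC50 was fitted from the percent-inhibition dose-response curve, censored at the highest concentration, excluding rows with a drug sensitivity score of zero.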
smiles,measurement,setting,value
C/C(=C\c1csc(C)n1)[C@@H]1C[C@@H]2O[C@]2(C)CCC[C@H](C)[C@H](O)[C@@H](C)C(=O)C(C)(C)[C@@H](O)CC(=O)O1 [Patupilone],normalised viability,[1]; 1000 nM,19.9%
same,normalised viability,[2]; 1000 nM,55.1%
same,normalised viability,[3]; 1000 nM,20.9%
same,normalised viability,[4]; 1000 nM,13.6%
same,normalised viability,[5]; 1000 nM,30.3%
same,normalised viability,[6]; 1000 nM,2.77%
same,normalised viability,[7]; 30 nM,19.6%
same,normalised viability,[8]; 30 nM,48.4%
same,normalised viability,[9]; 30 nM,24.8%
same,normalised viability,[10]; 30 nM,28.8%
same,normalised viability,[11]; 30 nM,27.2%
same,normalised viability,[12]; 30 nM,18.5%
same,normalised viability,[13]; 10 nM,66.2%
same,normalised viability,[14]; 10 nM,29.4%
same,normalised viability,[15]; 10 nM,111%
same,normalised viability,[16]; 10 nM,66%
same,normalised viability,[17]; 1 nM,93.1%
same,normalised viability,[18]; 10 nM,28.4%
same,normalised viability,[19]; 1 nM,125%
same,normalised viability,[20]; 1 nM,88.7%
same,normalised viability,[21]; 10 nM,66.4%
same,"EC50, CellTiter-Glo",[22],14.9 nM
same,"EC50, CellTiter-Glo",[23],57.3 nM
same,"EC50, CellTiter-Glo",[24],57.4 nM
same,"EC50, CellTiter-Glo",[25],> 1000 nM
same,"EC50, CellTiter-Glo",[26],9.09 nM
same,"EC50, CellTiter-Glo",[27],73.8 nM
same,"EC50, CellTiter-Glo",[28],149 nM
same,"EC50, CellTiter-Glo",[29],7.53 nM
same,"EC50, CellTiter-Glo",[30],38.9 nM
same,"EC50, CellTiter-Glo",[31],84.9 nM
same,"EC50, CellTiter-Glo",[32],219 nM
same,"EC50, CellTiter-Glo",[33],8.54 nM
same,"EC50, CellTiter-Glo",[34],18.9 nM
same,"EC50, CellTiter-Blue viability",[35],4.4 nM
CN1CCN(CCOc2cc(OC3CCOCC3)c3c(Nc4c(Cl)ccc5c4OCO5)ncnc3c2)CC1 [Saracatinib],normalised viability,[1]; 10000 nM,62%
same,normalised viability,[2]; 10000 nM,21.9%
same,normalised viability,[3]; 10000 nM,35.6%
same,normalised viability,[4]; 10000 nM,38.4%
same,normalised viability,[5]; 10000 nM,23.5%
same,normalised viability,[6]; 10000 nM,133%
same,normalised viability,[7]; 300 nM,92.4%
same,normalised viability,[8]; 300 nM,85.4%
same,normalised viability,[9]; 300 nM,104%
same,normalised viability,[10]; 300 nM,85.7%
same,normalised viability,[11]; 300 nM,88.6%
same,normalised viability,[12]; 300 nM,96.8%
same,normalised viability,[13]; 100 nM,109%
same,normalised viability,[14]; 100 nM,112%
same,normalised viability,[15]; 100 nM,108%
same,normalised viability,[16]; 100 nM,84.3%
same,normalised viability,[17]; 10 nM,80.7%
same,normalised viability,[18]; 100 nM,85.3%
same,normalised viability,[19]; 10 nM,104%
same,normalised viability,[20]; 10 nM,105%
same,normalised viability,[21]; 100 nM,105%
same,"EC50, CellTiter-Glo",[22],> 10000 nM
same,"EC50, CellTiter-Glo",[23],2330 nM
same,"EC50, CellTiter-Glo",[24],354 nM
same,"EC50, CellTiter-Glo",[25],> 10000 nM
same,"EC50, CellTiter-Glo",[26],1600 nM
same,"EC50, CellTiter-Glo",[27],> 10000 nM
same,"EC50, CellTiter-Glo",[28],901 nM
same,"EC50, CellTiter-Glo",[29],1840 nM
same,"EC50, CellTiter-Glo",[30],2120 nM
same,"EC50, CellTiter-Glo",[31],1360 nM
same,"EC50, CellTiter-Glo",[32],2010 nM
same,"EC50, CellTiter-Glo",[33],805 nM
same,"EC50, CellTiter-Glo",[34],953 nM
same,"EC50, CellTiter-Blue viability",[35],2540 nM
